In patent publication US9028845B2, “Chimeric immunomodulatory compounds and methods of using the same-IV” (Dynavax Technologies Corporation, priority 2001, dated 2015):
Marks after values point to notes of the source that are not given here.

How the values were obtained:
human PBMCs = experiment: Human PBMC cytokine response assay (IFN-γ and IFN-α in cell-free medium by ELISA), with or without cPLGA; type: cell-based;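 as to IFN-α (pg/ml) mean: 20 µg/mL compound for 24 hours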;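 as to IFN-γ (pg/ml) mean: 20 µg/mL compound for 24 hours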
mice = experiment: Serum cytokines (IL-12 p40, IL-6, TNF-α) after subcutaneous injection in mice; type: in vivo; settings: 20 ug subcutaneous, blood 2 hours later
Method: Blood was collected 2 hours later. For the LPS positive control group, mice were injected intraperitoneally with a 200 ul volume, and blood was collected 1.5 hours later (i.e., at the peak of LPS induced TNF-α activity). The blood was clotted and the serum was prepared and stored at −80° C. until assayed. Serum cytokines were assayed using Biosource cytoscreen kits for TNF-α and Pharmingen antibody pairs for mIL-6 and mIL-12. All samples were assayed in duplicate.

PBMCs = experiment: Human PBMC proliferation assay (3H-thymidine incorporation); type: cell-based; settings: Experiment A; for mean cpm: 2 μg/ml
[1] = tested on: hepatitis B surface antigen (HBsAg); settings: in vivo
CD19+ B cells = experiment: Human B cell proliferation assay (3H-thymidine incorporation); settings: 2 μg/ml; for cpm1 / cpm2 / cpm3 / mean cpm / mean of both: B cells
Method: Purified human B cells from 2 donors were stimulated with 5 μg/ml P-6 or CIC for 96 h. Proliferation was assessed by ^3H-thymidine incorporation.
A CIC is considered to induce “little” human B cell proliferation if B cell proliferation in the presence of the CIC is between greater than 15 to about 30% of P-6.
Human PBMCs were isolated from heparanized blood from two normal subjects. Some PBMCs were held in reserve while the remainder was incubated with CD19+ MACS beads (Miltenyi Biotec). These cells were then passed through a magnet, separating the CD19+ B cells through positive selection. […] B cells were then cultured at 1×10^5/200 μl/well in 96-well round-bottomed plates. In some cases, PBMCs were also cultured, but at 2×10^5/200 μl/well. Cells were stimulated in triplicate with 2 μg/ml polynucleotide or CIC. The culture period was 48 hours at 37° C. At the end of the culture period, the plates were pulsed with ^3H-thymidine, 1 μCi/well, and incubated for an additional 8 hours. Then the plates were harvested using standard liquid scintillation techniques and data was collected in counts per minutes (cpm).

mouse lung = experiment: Induction of immune-associated genes in the mouse lung after intranasal treatment (quantitative PCR); type: in vivo, BALB/c mice; settings: 20 ug intranasal, 6 hrs
Method: The genes evaluated included genes encoding cytokines, chemokines, cell surface molecules, transcription factors, metalloproteases, and other molecules. The study was performed at Northview Pacific Laboratories (Hercules, Calif.) with 6-8 week old female BALB/c mice from Jackson Labs (Bar Harbor, Me.). […] Therefore, at 6 hrs the lungs were harvested and snap-frozen in liquid nitrogen and stored at −80° C. for later use. Total RNA was isolated using RNeasy mini kits (Qiagen Inc., Valencia, Calif.). The RNA samples were DNAse-treated (Roche Diagnostics, Mannheim, Germany) and converted into cDNA using Superscript II Rnase H-Reverse Transcriptase (Invitrogen, Rockville Md.) as described in Scheerens et al., 2001, Eur. J. of Immunology 31:1465-74. The cDNA samples were pooled per group and in each pooled sample the expression of mRNA of 75 genes was measured using real-time quantitative PCR (ABI Prism 5700, Perkin Elmer Applied Biosystems) and syber green (Qiagen Inc.). In addition to the genes of interest, in each sample the mRNA expression of a housekeeping gene was measured (HPRT or ubiquitin). In order to correct for the amount of RNA in each sample, all data were calculated relative to the expression of the housekeeping gene.

[2] = Water solubility of spacer precursor (dialcohol form); type: physicochemical; settings: tested as dialcohol precursor of the dodecyl spacer
From the text: Thus, the definition of spacers excludes microcarriers or nanocarriers. […] The form of the spacer moiety used for testing its water solubility is generally its most closely related unactivated and unprotected spacer precursor molecule. For example, C-19 contains a spacer moiety including a dodecyl group with phosphorothioate diester linkages at the C-1 and C-12 positions, thereby connecting the spacer moiety to the nucleic acid moieties. […] These higher water solubility spacers include, without limitation, propane 1,3 diol; glycerol; butane-1,4-diol; pentane-1,5-diol; hexane-1,6-diol; triethylene glycol, tetraethylene glycol and HEG.

[3] = donor 28066, 20 ug/ml, 24 h, + PLGA = premixed with 100 μg/ml cPLGA
[4] = donor 28067, 20 ug/ml, 24 h, + PLGA = premixed with 100 μg/ml cPLGA
[5] = donor 28068, 20 ug/ml, 24 h, + PLGA = premixed with 100 μg/ml cPLGA
[6] = mean of Donors 1-2, 20 μg/ml, 24 h
[7] = mean of Donors 9-12, 20 μg/ml, 24 h
[8] = mean of donors 28065-28068, 20 ug/ml, 24 h, + PLGA = premixed with 100 μg/ml cPLGA
[9] = mean of donors 28185-28188, Table 15

Molecule: 5′-TCGTCGA-3′- C3-5′-ACGTTCG-3′-C3-5′-AGATGAT-3′ [Compound C-9]
- IFN-α (pg/ml) Donor 1 (human PBMCs; Donor 1, 20 μg/ml, 24 h): 142 pg/mL
- IFN-γ (pg/ml) Donor 1 (human PBMCs; Donor 1, 20 μg/ml, 24 h): 2157 pg/mL
- IFN-α (pg/ml) Donor 2 (human PBMCs; Donor 2, 20 μg/ml, 24 h): 0 pg/mL
- IFN-γ (pg/ml) Donor 2 (human PBMCs; Donor 2, 20 μg/ml, 24 h): 171 pg/mL
- IFN-α Donor 9 (human PBMCs; Donor 9, 20 μg/ml, 24 h): 8
- IFN-γ Donor 9 (human PBMCs; Donor 9, 20 μg/ml, 24 h): 134
- IFN-α Donor 10 (human PBMCs; Donor 10, 20 μg/ml, 24 h): 10
- IFN-γ Donor 10 (human PBMCs; Donor 10, 20 μg/ml, 24 h): 7
- IFN-α Donor 11 (human PBMCs; Donor 11, 20 μg/ml, 24 h): 1
- IFN-γ Donor 11 (human PBMCs; Donor 11, 20 μg/ml, 24 h): 56
- IFN-α Donor 12 (human PBMCs; Donor 12, 20 μg/ml, 24 h): 15
- IFN-γ Donor 12 (human PBMCs; Donor 12, 20 μg/ml, 24 h): 30
- IFN-α (human PBMCs; Table 9, donor 28089): 10 pg/mL
- IFN-γ (human PBMCs; Table 9, donor 28089): 12 pg/mL
- IFN-α (human PBMCs; Table 9, donor 28090): 67 pg/mL
- IFN-γ (human PBMCs; Table 9, donor 28090): 7 pg/mL
- IFN-α mean (human PBMCs; Table 9, mean of donors): 39 pg/mL
- IFN-γ mean (human PBMCs; Table 9, mean of donors): 10 pg/mL
- IFN-α (human PBMCs; Table 11, donor 28042): 39 pg/mL
- IFN-γ (human PBMCs; Table 11, donor 28042): 691 pg/mL
- IFN-α (human PBMCs; Table 11, donor 28043): 0 pg/mL
- IFN-γ (human PBMCs; Table 11, donor 28043): 268 pg/mL
- IFN-α (human PBMCs; Table 11, donor 28044): 11 pg/mL
- IFN-γ (human PBMCs; Table 11, donor 28044): 590 pg/mL
- IFN-α (human PBMCs; Table 11, donor 28045): 64 pg/mL
- IFN-γ (human PBMCs; Table 11, donor 28045): 1306 pg/mL
- IFN-α mean (human PBMCs; Table 11, mean of donors): 29 pg/mL
- IFN-γ mean (human PBMCs; Table 11, mean of donors): 714 pg/mL
- IFN-α (human PBMCs; Table 13, donor 28156): 26 pg/mL
- IFN-γ (human PBMCs; Table 13, donor 28156): 1162 pg/mL
- IFN-α (human PBMCs; Table 13, donor 28157): 142 pg/mL
- IFN-γ (human PBMCs; Table 13, donor 28157): 729 pg/mL
- IFN-α (human PBMCs; Table 13, donor 28158): 78 pg/mL
- IFN-γ (human PBMCs; Table 13, donor 28158): 192 pg/mL
- IFN-α (human PBMCs; Table 13, donor 28159): 20 pg/mL
- IFN-γ (human PBMCs; Table 13, donor 28159): 329 pg/mL
- IFN-α mean (human PBMCs; Table 13, mean of donors): 67 pg/mL
- IFN-γ mean (human PBMCs; Table 13, mean of donors): 603 pg/mL
- IFN-γ (pg/ml) 28065 (human PBMCs; donor 28065 (high background), 20 ug/ml, 24 h, + PLGA = premixed with 100 μg/ml cPLGA, 1000 = outside assay limits): 1000 pg/mL
- IFN-α (pg/ml) 28065 (human PBMCs; donor 28065, 20 ug/ml, 24 h, + PLGA = premixed with 100 μg/ml cPLGA): 13 pg/mL
- IFN-α (pg/ml) 28066 (human PBMCs; [3]): 0 pg/mL
- IFN-γ (pg/ml) 28066 (human PBMCs; [3]): 8 pg/mL
- IFN-α (pg/ml) 28067 (human PBMCs; [4]): 22 pg/mL
- IFN-γ (pg/ml) 28067 (human PBMCs; [4]): 57 pg/mL
- IFN-α (pg/ml) 28068 (human PBMCs; [5]): 64 pg/mL
- IFN-γ (pg/ml) 28068 (human PBMCs; [5]): 510 pg/mL
- IFN-a (human PBMCs; donor 28185, Table 15): 25 pg/mL
- IFN-g (human PBMCs; donor 28185, Table 15): 189 pg/mL
- IFN-a (human PBMCs; donor 28186, Table 15): 16 pg/mL
- IFN-g (human PBMCs; donor 28186, Table 15): 24 pg/mL
- IFN-a (human PBMCs; donor 28187, Table 15): 4 pg/mL
- IFN-g (human PBMCs; donor 28187, Table 15): 95 pg/mL
- IFN-a (human PBMCs; donor 28188, Table 15): 146 pg/mL
- IFN-g (human PBMCs; donor 28188, Table 15): 11 pg/mL
- IFN-α (pg/ml) mean (human PBMCs; [6]): 71 pg/mL
- IFN-γ (pg/ml) mean (human PBMCs; [6]): 1164 pg/mL
- IFN-α mean (human PBMCs; [7]): 8
- IFN-γ mean (human PBMCs; [7]): 56
- IFN-α (pg/ml) mean (human PBMCs; [8]): 25 pg/mL
- IFN-γ (pg/ml) mean (human PBMCs; [8]): 394 pg/mL
- IFN-a (pg/ml) mean (human PBMCs; [9]): 48 pg/mL
- IFN-g (pg/ml) mean (human PBMCs; [9]): 80 pg/mL
- IFN-a (pg/ml) ×2 (human PBMCs; mean ×2, Table 15): 95 pg/mL
- IFN-g (pg/ml) ×4 (human PBMCs; mean ×4, Table 15): 319 pg/mL
- induction of serum IL-12 p40, IL-6 and TNF-α, in words (mice): induced IL-12 p40, IL-6, and TNF-α
- cpm1 (PBMCs; Donor 146, 2 μg/ml): 55348 cpm
- cpm2 (PBMCs; Donor 146, 2 μg/ml): 24857 cpm
- cpm3 (PBMCs; Donor 146, 2 μg/ml): 39953 cpm
- mean cpm (PBMCs; Donor 146 mean): 40053 cpm
- cpm1 (PBMCs; Donor 147, 2 μg/ml): 88106 cpm
- cpm2 (PBMCs; Donor 147, 2 μg/ml): 65413 cpm
- cpm3 (PBMCs; Donor 147, 2 μg/ml): 90665 cpm
- mean cpm (PBMCs; Donor 147 mean): 81395 cpm
- mean of both (PBMCs; mean of Donors 146 and 147, 2 μg/ml): 60724 cpm
- Anti-HBsAg (mIU/ml) post-first, Mean [1]: 68 mIU/ml
- Anti-HBsAg (mIU/ml) post-second, Mean [1]: 4135** mIU/ml
- B cell proliferation, in words (CD19+ B cells; 48 h plus 8 h 3H-thymidine pulse): cause B cells to proliferate
- cpm1 (CD19+ B cells; Donor 146, Experiment A): 35365 cpm
- cpm2 (CD19+ B cells; Donor 146, Experiment A): 42705 cpm
- cpm3 (CD19+ B cells; Donor 146, Experiment A): 45231 cpm
- mean cpm (CD19+ B cells; Donor 146 mean, Experiment A): 41100 cpm
- cpm1 (CD19+ B cells; Donor 147, Experiment A): 55543 cpm
- cpm2 (CD19+ B cells; Donor 147, Experiment A): 49035 cpm
- cpm3 (CD19+ B cells; Donor 147, Experiment A): 44985 cpm
- mean cpm (CD19+ B cells; Donor 147 mean, Experiment A): 49854 cpm
- cpm1 (CD19+ B cells; donor 121, Experiment B): 21938 cpm
- cpm2 (CD19+ B cells; donor 121, Experiment B): 35400 cpm
- cpm3 (CD19+ B cells; donor 121, Experiment B): 23877 cpm
- mean cpm (CD19+ B cells; donor 121 mean, Experiment B): 27072 cpm
- cpm1 (CD19+ B cells; donor 194, Experiment B): 13660 cpm
- cpm2 (CD19+ B cells; donor 194, Experiment B): 16717 cpm
- cpm3 (CD19+ B cells; donor 194, Experiment B): 17866 cpm
- mean cpm (CD19+ B cells; donor 194 mean, Experiment B): 16081 cpm
- mean of both (CD19+ B cells; mean of Donors 146 and 147, Experiment A): 45477 cpm
- mean of both (CD19+ B cells; mean of donors 121 and 194, Experiment B): 21576 cpm
- mRNA expression of IFN-alpha in the lung, in words (mouse lung): considerably higher mRNA expression of IFN-alpha
- mRNA expression of immune-associated genes in the lung, in words (mouse lung; vs P-7 treated mice): potently induce the expression of a variety of genes

Molecule: OCCCCCCCCCCCCO [1,12-dihydroxydodecane]
- solubility [2]: < 5000 µg/mL
